Assay results published in patent US4406875A, “Radiolabeled amine compounds and their use” (Byk-Mallinckrodt CIL B.V., priority 1979, dated 1983).

Tests used:
fibrin = assay: Incorporation of the radiolabeled compound into a fibrin clot (human fibrinogen, Factor XIII, human thrombin); assay type: biochemical; conditions: incubated about three and a half hours at about 37° C.; clot washed three times
Description: The radiolabeled amine compound N-(5-aminopentyl)-5-iodonaphthalenesulfonamide,I-125 is tested for its ability to be incorporated into fibrin.
The following solutions are mixed in a polystyrene test tube; (a) about 1 ml of a solution containing about 5 mg/ml of human fibrinogen (about 1.5×10^-5 M) and a tris-HCl buffer in a concentration of about 5×10^-3 M, the solution having a pH of about 7.4, (b) about 0.1 ml of a saline solution containing about 4×10^-2 units of blood Factor XIII, (c) about 0.1 ml of a 0.05 M cysteine solution having a pH of about 7.4, and (d) about 0.1 ml of a solution containing the N-(5-aminopentyl)-5-iodonaphthalenesulfonamide,I-125 compound in a concentration of about 2.3×10^-5 mmole and a radioactivity of about 1 μCi. Thereafter, about 0.2 ml of solution of about 0.05 M tris buffer and about 0.025 M CaCl2 which contains about 10 NIH units of human thrombin and has a pH of about 7.4 is added.
The resultant mixture is then incubated for about three and a half hours at about 37° C. whereupon a fibrin clot is formed. […] The radioactivity of the solution and the clot are then measured in a suitable detection apparatus. From these radioactivity measurements, it is determined that about 15% of the initial radioactivity is incorporated into the fibrin clot.

[1] = Stability towards deiodination and tissue incorporation after intravenous administration to rabbits; assay type: in vivo, New Zealand white rabbits; conditions: rabbit
Description: The radiolabeled amine compound N-(5-aminopentyl)-5-iodonaphthalenesulfonamide,I-`125 is tested for stability towards deiodination and for tissue incorporation by administering the compound to rabbits.
Two test solutions each of about 0.5 mCi of the above compound (spec. activity of about 1 mCi/mg) in about 1.45 ml of a physiological saline solution are prepared. A test solution is then intravenously administered to two New Zealand white rabbits, each weighing about 3 kg.
A blood sample is then taken from each rabbit at 12, 24, 36 and 72 hour periods after administration. The radioactivity of about 1 g of blood from samples for each time period is then measured. The measurements indicate that the radioactivity in the blood decreases slowly and that at about 72 hours after administration, about 20% of the initial radioactivity is still present in the blood. Due to the relatively slow disappearance of the subject compound from the bloodstream, the compound is therefore available in the bloodstream for a prolonged period of time which thereby increases its suitability to become incorporated into an occurring thrombus.
At the end of the 72 hour period, the rabbits are sacrificed and thereafter, the thyroid, liver, kidneys, lung, stomach wall, parotid glands, brains, muscle and bone tissue are removed and portions are measured for radioactivity. The thyroid contains only about 0.05% of the injected dose per gram which thereby indicates the stability of the subject compound towards deiodination. […] The liver contains about 0.04% and the gall bladder contains about 0.1% of the injected dose while the kidneys and the urine both contain about 0.3% of the dose.

blood clot factor XIII = assay: In vitro incorporation of the radiolabeled compound in casein by blood clot factor XIII (Km, Lineweaver-Burke plot); assay type: biochemical
Description: Incorporation of the radiolabeled compound produced in Example I in fibrin by means of the blood clot factor XIII was investigated in vitro in the following manner:
To about 400 ul of a physiolgical salt solution containing 10 units of Factor XIII per ml, the following solutions were successively added; (a) about 500 ul of 0.5 molar solution of cystein in a buffer solution of tris(hydroxymethyl)aminomethane having a pH of 7.4, (b) about 100 ul of a buffer solution of tris (hydroxymethyl) aminomethane having a pH of about 7.4 and in which about 250 units of thrombine per ml had been dissolved, (c) about 1200 ul of a buffer solution of tris(hydroxymethyl) aminomethane, (d) about 50 ul of 0.4 molar solution of calcium chloride in water, and (e) about 200 ul of 5% solution of casein in water. […]
After incubation of the test solutions at about 37° C. for about 15 minutes, the reaction was discontinued by the addition of about 200 ul of a 1 molar solution of monoidoacetic acid which has been brought to a pH of about 7.4 by a sodium hydroxide solution. […] The radioactivity in the high-molecular fraction was then measured to determine if the radiolabeled sulfonamide compound had indeed been incorporated into the casein. […]

Compound	initial radioactivity incorporated into the fibrin clot (fibrin)	radioactivity in gall bladder ([1]; 72 hours)	radioactivity in kidneys ([1]; 72 hours)	radioactivity in liver ([1]; 72 hours)	radioactivity in urine ([1]; 72 hours)	initial radioactivity still present in the blood ([1]; about 0.5 mCi, about 72 hours after administration)	tissue uptake at 72 h ([1]; thyroid, 72 hours, indicates stability towards deiodination, read-out: radioactivity in thyroid) [%ID/g]	incorporation in casein (in words) (blood clot factor XIII; casein)	Km (blood clot factor XIII; casein as acceptor, 37° C., 15 minutes, pH 7.4, Lineweaver-Burke plot from measured radioactivity) [µM]
NCCCCCNS(=O)(=O)c1cccc2c([125I])cccc12 [N-(5-aminopentyl)-5-iodonaphthalenesulfonamide,I-125]	about 15%	about 0.1 % of the injected dose	about 0.3 % of the dose	about 0.04 % of the injected dose	about 0.3 % of the dose	about 20%	~0.05	–	–
NCCCCCNS(=O)(=O)c1cccc2c([131I])cccc12 [N-(5-aminopentyl)-5-iodonaphthalene-1-sulfonamide-I-131]	–	–	–	–	–	–	–	amply sufficient to be incorporated efficiently in casein	250
